Patent US20260184663A1, “INDENE COMPOUNDS, PHARMACEUTICAL COMPOSITIONS THEREOF, AND THEIR THERAPEUTIC APPLICATIONS” (NucMito Pharmaceuticals co. Ltd., priority 2022, published 2026)

Legend:
Type in all cases: cell-based
[1] = system: MDA-MB-231 (breast cancer); test: Antiproliferative activity (CCK-8 cell viability), MDA-MB-231; details: Homo sapiens, 72 h; for inhibition at 3.3 µM: Compound concentration: 3.3 μM; for inhibition at 3.3 µM / inhibition at 10 µM: read-out: Antiproliferative activity in cancerous cells, MDA-MB-231 (inhibition of cell growth); for inhibition at 10 µM: Compound concentration: 10 μM; for inhibition at 30 µM: Compound concentration: 30 μM, read-out: Antiproliferative activity in cancerous cells, MDA-MB-231
Summary of the method: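 MDA-MB-231 breast cancer cells, grown in DMEM with 10% FBS, were plated in 96-well plates at 2,000-5,000 cells/well. Once attached, they were exposed to compound and incubated at 37° C. for 72 h. Viability was then measured with CCK-8 (10 μL per well, 4 h at 37° C.) by absorbance at 450 nm, relative to DMSO vehicle wells.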

[2] = system: B16F10 (malignant melanoma); test: Antiproliferative activity (CCK-8 cell viability), B16F10; details: Mus musculus, 72 h, read-out: Antiproliferative activity in cancerous cells, B16F10 (inhibition of cell growth); for inhibition at 3.3 µM: B16-F10, Compound concentration: 3.3 μM; for inhibition at 10 µM: B16-F10, Compound concentration: 10 μM
Summary of the method: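 B16F10 melanoma cells grown in DMEM with 10% FBS were plated in 96-well plates at 2,000-5,000 cells/well. After attachment they were exposed to compound in medium for 72 h at 37° C. CCK-8 solution (10 μL) was then added, and after 4 h at 37° C absorbance was read at 450 nm.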

[3] = system: SW480 (colon cancer); test: Antiproliferative activity (CCK-8 cell viability), SW480; details: Homo sapiens, 72 h; for inhibition at 3.3 µM: Compound concentration: 3.3 μM; for inhibition at 3.3 µM / inhibition at 10 µM: read-out: Antiproliferative activity in cancerous cells, SW480 (inhibition of cell growth); for inhibition at 10 µM: Compound concentration: 10 μM
Summary of the method: (§1)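 Cells grown in DMEM (HepG2, SW480), MEM (HeLa) or F-12K (A549), each with 10% FBS, then exposed to compound at 3.3, 10 or 30 μM for 72 h at 37 °C. CCK-8 absorbance at 450 nm; viability expressed as percent of DMSO-treated cells, graded as growth inhibition bands.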

[4] = system: HepG2 (liver cancer); test: Antiproliferative activity (CCK-8 cell viability), HepG2; details: Homo sapiens, 72 h, read-out: Antiproliferative activity in cancerous cells, HepG2 (inhibition of cell growth); for inhibition at 3.3 µM: Compound concentration: 3.3 μM; for inhibition at 10 µM: Compound concentration: 10 μM
Summary of the method: as §1

[5] = system: A431 (epidermoid carcinoma); test: Antiproliferative activity (CCK-8 cell viability), A431; details: Homo sapiens, 72 h, read-out: Antiproliferative activity in cancerous cells, A431 (inhibition of cell growth); for inhibition at 3.3 µM: A-431, Compound concentration: 3.3 μM; for inhibition at 10 µM: A-431, Compound concentration: 10 μM
Summary of the method: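 A431 epidermoid carcinoma cells grown in DMEM with 10% FBS were plated at 2,000-5,000 cells/well in 96-well plates. After attachment they were exposed to compound at 3.3 μM, 10 μM, or 30 μM for 72 h at 37° C. Viability was then assessed by CCK-8 against DMSO vehicle-treated wells.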

[6] = system: HeLa (cervical cancer); test: Antiproliferative activity (CCK-8 cell viability), HeLa; details: Homo sapiens, 72 h, read-out: Antiproliferative activity in cancerous cells, HELA (inhibition of cell growth); for inhibition at 3.3 µM: Compound concentration: 3.3 μM; for inhibition at 10 µM: Compound concentration: 10 μM
Summary of the method: as §1

[7] = system: A549 (lung adenocarcinoma); test: Antiproliferative activity (CCK-8 cell viability), A549; details: Homo sapiens, 72 h; for inhibition at 3.3 µM: Compound concentration: 3.3 μM; for inhibition at 3.3 µM / inhibition at 10 µM: read-out: Antiproliferative activity in cancerous cells, A549 (inhibition of cell growth); for inhibition at 10 µM: Compound concentration: 10 μM
Summary of the method: as §1

Compound	inhibition at 3.3 µM [1] [%]	inhibition at 10 µM [1] [%]	inhibition at 30 µM [1] [%]	inhibition at 3.3 µM [2] [%]	inhibition at 10 µM [2] [%]	inhibition at 3.3 µM [3] [%]	inhibition at 10 µM [3] [%]	inhibition at 3.3 µM [4] [%]	inhibition at 10 µM [4] [%]	inhibition at 3.3 µM [5] [%]	inhibition at 10 µM [5] [%]	inhibition at 3.3 µM [6] [%]	inhibition at 10 µM [6] [%]	inhibition at 3.3 µM [7] [%]	inhibition at 10 µM [7] [%]	inhibition at 30 µM ([7]; Compound concentration: 30 μM, read-out: Antiproliferative activity in cancerous cells, A549) [%]	inhibition at 30 µM ([3]; Compound concentration: 30 μM, read-out: Antiproliferative activity in cancerous cells, SW480) [%]
CC1=C(CC(=O)O)c2cc(Cl)ccc2/C1=C\c1ccc(COc2ccc(C(F)(F)F)cc2)cc1 [B58, (Z)-2-(5-Chloro-2-methyl-1-(4-((4-(trifluoromethyl)phenoxy)methyl)-benzylidene)-1H-inden-3-yl)acetic acid]	< 30	< 30	30 to 50	≥ 50	≥ 50	< 30	30 to 50	< 30	≥ 50	30 to 50	30 to 50	30 to 50	≥ 50	< 30	30 to 50	–	–
CC1=C(CC(=O)O)c2cc(C)ccc2/C1=C\c1ccc(COc2ccc(C(F)(F)F)cc2)cc1 [B59, (Z)-2-(2,5-Dimethyl-1-(4-((4-(trifluoromethyl)phenoxy)methyl)benzylidene)-1H-inden-3-yl)acetic acid]	< 30	< 30	< 30	30 to 50	≥ 50	< 30	30 to 50	< 30	< 30	≥ 50	≥ 50	30 to 50	30 to 50	< 30	30 to 50	30 to 50	–
CCc1ccc2c(c1)C(CC(=O)O)=C(C)/C2=C/c1ccc(COc2ccc(C(F)(F)F)cc2)cc1 [B60, (Z)-2-(5-Ethyl-2-methyl-1-(4-((4-(trifluoromethyl)phenoxy)methyl)benzylidene)-1H-inden-3-yl)acetic acid]	< 30	< 30	–	30 to 50	≥ 50	< 30	≥ 50	≥ 50	≥ 50	≥ 50	≥ 50	30 to 50	≥ 50	30 to 50	≥ 50	–	–
CC1=C(CC(=O)O)c2cc(F)ccc2/C1=C\c1cccc(C(=O)Nc2ccc(F)cc2)c1 [B69, (Z)-2-(5-Fluoro-1-(3-((4-fluorophenyl)carbamoyl)benzylidene)-2-methyl-1H-inden-3-yl)acetic acid]	30 to 50	≥ 50	–	≥ 50	≥ 50	30 to 50	≥ 50	30 to 50	≥ 50	< 30	≥ 50	≥ 50	≥ 50	< 30	≥ 50	–	–
CC1=C(CC(=O)O)c2cc(F)ccc2/C1=C\c1ccc(OCc2cc3ccccc3s2)cc1 [B70, (Z)-2-(1-(4-(Benzo[b]thiophen-2-ylmethoxy)benzylidene)-5-fluoro-2-methyl-1H-inden-3-yl)acetic acid]	30 to 50	≥ 50	–	≥ 50	≥ 50	30 to 50	≥ 50	≥ 50	≥ 50	30 to 50	30 to 50	≥ 50	≥ 50	≥ 50	≥ 50	–	–
CCc1ccc2c(c1)C(CC(=O)O)=C(C)/C2=C/c1cccc(COc2ccc(F)cc2)c1 [B71, (Z)-2-(5-Ethyl-1-(3-((4-fluorophenoxy)methyl)benzylidene)-2-methyl-1H-inden-3-yl)acetic acid]	< 30	≥ 50	–	< 30	≥ 50	< 30	< 30	< 30	< 30	≥ 50	≥ 50	< 30	≥ 50	30 to 50	≥ 50	–	–
CC1=C(CC(=O)O)c2cc(F)ccc2/C1=C\c1ccc(COc2ccc(Cl)cc2)cc1Br [B72, (Z)-2-(1-(2-Bromo-4-((4-chlorophenoxy)methyl)benzylidene)-5-fluoro-2-methyl-1H-inden-3-yl)acetic acid]	30 to 50	30 to 50	–	≥ 50	≥ 50	30 to 50	30 to 50	≥ 50	≥ 50	≥ 50	≥ 50	≥ 50	≥ 50	≥ 50	≥ 50	–	30 to 50
CC1=C(CC(=O)O)c2cc(F)ccc2/C1=C\c1ccc(COc2ccc(Cl)cc2)cc1C [B73, (Z)-2-(1-(4-((4-Chlorophenoxy)methyl)-2-methylbenzylidene)-5-fluoro-2-methyl-1H-inden-3-yl)acetic acid]	< 30	< 30	–	30 to 50	30 to 50	30 to 50	≥ 50	< 30	≥ 50	≥ 50	≥ 50	30 to 50	≥ 50	< 30	≥ 50	–	–
CC1=C(CC(=O)O)c2cc(F)ccc2/C1=C\c1ccc(COc2ccc(F)cc2)cc1Br [B74, (Z)-2-(1-(2-Bromo-4-((4-fluorophenoxy)methyl)benzylidene)-5-fluoro-2-methyl-1H-inden-3-yl)acetic acid]	< 30	30 to 50	–	30 to 50	≥ 50	< 30	< 30	≥ 50	≥ 50	< 30	30 to 50	< 30	≥ 50	30 to 50	30 to 50	–	–
CC1=C(CC(=O)O)c2cc(F)ccc2/C1=C\c1ccc(COCc2ccc(F)cc2)cc1 [B101, (Z)-2-(5-Fluoro-1-(4-(((4-fluorobenzyl)oxy)methyl)benzylidene)-2-methyl-1H-inden-3-yl)acetic acid]	≥ 50	≥ 50	–	< 30	≥ 50	< 30	≥ 50	30 to 50	≥ 50	< 30	30 to 50	< 30	≥ 50	30 to 50	≥ 50	–	–
